# US11534412B2, “Application of totarol and pharmaceutical composition containing totarol” (Emergopharm SP. Z O.O. SP.K., priority 2017, dated 2022)
# System: Gardnerella vaginalis - clinical strain
# Experiment: Determination of the MIC value of totarol, broth dilution in 96-well plates with OD and quantitative culture
# Assay type: cell-based
# Conditions: for OD, average of 3 measurements: 620 nm
# Experimental: Test of antibacterial activity of totarol using DMI (dimethylisosorbide) as a solvent.
# A suspension of 0.5 McF in physiological saline (suspension density 10^8 cfu/ml) was prepared from a 24-hour culture of a standard strain. 1 ml of the suspension was collected to 9 ml of a TSB broth ([…]). Suspensions with a dilution of 10^−6 were prepared in the described way. A suspension with a cell density of 10^5 cfu/ml was selected for further investigations. For each strain, 2 96-well plates were prepared: the first one was intended for the OD measurement, the second one—for quantitative culture on solid media. • A/ to wells B1-D1, B2-D2 and B-D 4-11, 100 µl of the broth were added; • B/ to wells B3-D3, 200 µl of the broth were added; • C/ to wells B1-D1, 1 µl of stock I was added; • D/ to wells B2-D2, 1 µl of stock II was added; • E/ to wells B3-D3, 2 µl of stock III were added. Using a multichannel pipette, 100 µl of the sample were collected from each of the B3-D3 wells and placed in wells B4-D4 (mixing by sucking the content in and letting it out for 5 times). The pipette tips were replaced and 100 µl of the content were collected from of the B4-D4 wells, and placed in wells B5-D5, mixing as previously. These operations were repeated through the wells B11-D11. The content in the B11-D11 wells was mixed, and 100 µl of the fluid were collected and discarded. This way, a series of dilutions of totarol samples in DMI in the range of 0.32% to 0.0004% was obtained. Then, 100 µl of a corresponding bacterial culture were added to the wells B, C, D 1-11. In consequence, a change in the final concentration range occurred, to 0.16%-0.0002%. Control Preparation: • Negative control: 100 µl of the broth+1 pl DMI were added to the Al well. • Positive control (I): 100 µl of the broth with the bacterial culture were added to the wells E1-G1. • Diluent positive control (II): 100 µl of the broth with the bacterial culture+1 pl DMI were added to the wells E2-G2. The OD value in the individual wells was read at the wavelength of 620 nm (read time 0). From the second 96-well plate, a culture was inoculated by a quantitative method from every dilution onto a well with a proper solid medium, and incubated for 24 h at 37° C. under aerobic or anaerobic conditions, depending on the strain. The plates were incubated under aerobic conditions or in an atmosphere of an elevated CO2 concentration (for the strains requiring it) in an incubator at 37° C. The OD was read after 8 h, 16 h, and 24 h, respectively. Before every OD measurement, the contents of the wells were mixed delicately. In parallel to the OD readout, cultures we inoculated from the second 96-well plate, from every dilution, into plates with a proper solid medium, and incubated for 24 h at 37° C., under aerobic or anaerobic conditions. For the analysis of the experimental results, an average value of the OD measurement obtained from three repetitions in the individual times (0, 8, 16, and 24 h) for the individual microbes (Gardnerella vaginalis, Streptococcus agalactiae, Enterococcus faecalis, Lactobacillus gasseri/plantarum) was taken. Additionally, the number of bacteria grown on solid media was taken into account. The results of the tests confirm the specific, concentration-dependent selectiveness, and the high antibacterial effectiveness of totarol against the pathogenic microorganisms: Gardnerella vaginalis, Streptococcus agalactiae, Enterococcus faecalis at low MIC values safe for bacteria of the Lactobacillus genus.
compound,measurement,setting,value
"CC(C)c1c(O)ccc2c1CC[C@H]1C(C)(C)CCC[C@]21C [Totarol, totarol]",MIC value,G. vaginalis,0.005%
same,difference in values of MIC concentrations,bacilli of the Lactobacillus genus versus Gardnerella vaginalis,approximately 10 fold
same,viable count by quantitative culture (cfu/ml),"totarol 0.0002%, 0 h",1.5 × 10^5 cfu/ml
same,"OD, average of 3 measurements","totarol 0.0002%, 0 h",0.313
same,viable count by quantitative culture (cfu/ml),"totarol 0.0002%, 8 h",2 × 10^5 cfu/ml
same,"OD, average of 3 measurements","totarol 0.0002%, 8 h",0.328
same,viable count by quantitative culture (cfu/ml),"totarol 0.0002%, 16 h",2 × 10^5 cfu/ml
same,"OD, average of 3 measurements","totarol 0.0002%, 16 h",0.364
same,viable count by quantitative culture (cfu/ml),"totarol 0.0002%, 24 h",2.2 × 10^5 cfu/ml
same,"OD, average of 3 measurements","totarol 0.0002%, 24 h",0.398
same,viable count by quantitative culture (cfu/ml),"totarol 0.0004%, 0 h",2.2 × 10^5 cfu/ml
same,"OD, average of 3 measurements","totarol 0.0004%, 0 h",0.326
same,viable count by quantitative culture (cfu/ml),"totarol 0.0004%, 8 h",2 × 10^5 cfu/ml
same,"OD, average of 3 measurements","totarol 0.0004%, 8 h",0.334
same,viable count by quantitative culture (cfu/ml),"totarol 0.0004%, 16 h",4.9 × 10^5 cfu/ml
same,"OD, average of 3 measurements","totarol 0.0004%, 16 h",0.362
same,viable count by quantitative culture (cfu/ml),"totarol 0.0004%, 24 h",3.9 × 10^5 cfu/ml
same,"OD, average of 3 measurements","totarol 0.0004%, 24 h",0.390
same,viable count by quantitative culture (cfu/ml),"totarol 0.0007%, 0 h",9 × 10^4 cfu/ml
same,"OD, average of 3 measurements","totarol 0.0007%, 0 h",0.315
same,viable count by quantitative culture (cfu/ml),"totarol 0.0007%, 8 h",6 × 10^4 cfu/ml
same,"OD, average of 3 measurements","totarol 0.0007%, 8 h",0.307
same,viable count by quantitative culture (cfu/ml),"totarol 0.0007%, 16 h",2.1 × 10^5 cfu/ml
same,"OD, average of 3 measurements","totarol 0.0007%, 16 h",0.326
same,viable count by quantitative culture (cfu/ml),"totarol 0.0007%, 24 h",3.8 × 10^5 cfu/ml
same,"OD, average of 3 measurements","totarol 0.0007%, 24 h",0.346
same,viable count by quantitative culture (cfu/ml),"totarol 0.0013%, 0 h",1 × 10^5 cfu/ml
same,"OD, average of 3 measurements","totarol 0.0013%, 0 h",0.321
same,viable count by quantitative culture (cfu/ml),"totarol 0.0013%, 8 h",2.7 × 10^4 cfu/ml
same,"OD, average of 3 measurements","totarol 0.0013%, 8 h",0.314
same,viable count by quantitative culture (cfu/ml),"totarol 0.0013%, 16 h",6.2 × 10^5 cfu/ml
same,"OD, average of 3 measurements","totarol 0.0013%, 16 h",0.318
same,viable count by quantitative culture (cfu/ml),"totarol 0.0013%, 24 h",1.2 × 10^5 cfu/ml
same,"OD, average of 3 measurements","totarol 0.0013%, 24 h",0.322
same,viable count by quantitative culture (cfu/ml),"totarol 0.0025%, 0 h",1.3 × 10^5 cfu/ml
same,"OD, average of 3 measurements","totarol 0.0025%, 0 h",0.312
same,viable count by quantitative culture (cfu/ml),"totarol 0.0025%, 8 h",5 × 10^4 cfu/ml
same,"OD, average of 3 measurements","totarol 0.0025%, 8 h",0.311
same,viable count by quantitative culture (cfu/ml),"totarol 0.0025%, 16 h",5.2 × 10^4 cfu/ml
same,"OD, average of 3 measurements","totarol 0.0025%, 16 h",0.314
same,viable count by quantitative culture (cfu/ml),"totarol 0.0025%, 24 h",2.3 × 10^4 cfu/ml
same,"OD, average of 3 measurements","totarol 0.0025%, 24 h",0.317
same,viable count by quantitative culture (cfu/ml),"totarol 0.005%, 0 h",3.1 × 10^5 cfu/ml
same,"OD, average of 3 measurements","totarol 0.005%, 0 h",0.318
same,viable count by quantitative culture (cfu/ml),"totarol 0.005%, 8 h",0 cfu/ml
same,"OD, average of 3 measurements","totarol 0.005%, 8 h",0.318
same,viable count by quantitative culture (cfu/ml),"totarol 0.005%, 16 h",0 cfu/ml
same,"OD, average of 3 measurements","totarol 0.005%, 16 h",0.323
same,viable count by quantitative culture (cfu/ml),"totarol 0.005%, 24 h",0 cfu/ml
same,"OD, average of 3 measurements","totarol 0.005%, 24 h",0.327
same,viable count by quantitative culture (cfu/ml),"totarol 0.01%, 0 h",1.6 × 10^5 cfu/ml
same,"OD, average of 3 measurements","totarol 0.01%, 0 h",0.319
same,viable count by quantitative culture (cfu/ml),"totarol 0.01%, 8 h",0 cfu/ml
same,"OD, average of 3 measurements","totarol 0.01%, 8 h",0.323
same,viable count by quantitative culture (cfu/ml),"totarol 0.01%, 16 h",0 cfu/ml
same,"OD, average of 3 measurements","totarol 0.01%, 16 h",0.325
same,viable count by quantitative culture (cfu/ml),"totarol 0.01%, 24 h",0 cfu/ml
same,"OD, average of 3 measurements","totarol 0.01%, 24 h",0.328
same,viable count by quantitative culture (cfu/ml),"totarol 0.02%, 0 h",2.1 × 10^5 cfu/ml
same,"OD, average of 3 measurements","totarol 0.02%, 0 h",0.344
same,viable count by quantitative culture (cfu/ml),"totarol 0.02%, 8 h",0 cfu/ml
same,"OD, average of 3 measurements","totarol 0.02%, 8 h",0.332
same,viable count by quantitative culture (cfu/ml),"totarol 0.02%, 16 h",0 cfu/ml
same,"OD, average of 3 measurements","totarol 0.02%, 16 h",0.333
same,viable count by quantitative culture (cfu/ml),"totarol 0.02%, 24 h",0 cfu/ml
same,"OD, average of 3 measurements","totarol 0.02%, 24 h",0.334
same,viable count by quantitative culture (cfu/ml),"totarol 0.04%, 0 h",3.7 × 10^5 cfu/ml
same,"OD, average of 3 measurements","totarol 0.04%, 0 h",0.460
same,viable count by quantitative culture (cfu/ml),"totarol 0.04%, 8 h",0 cfu/ml
same,"OD, average of 3 measurements","totarol 0.04%, 8 h",0.416
same,viable count by quantitative culture (cfu/ml),"totarol 0.04%, 16 h",0 cfu/ml
same,"OD, average of 3 measurements","totarol 0.04%, 16 h",0.411
same,viable count by quantitative culture (cfu/ml),"totarol 0.04%, 24 h",0 cfu/ml
same,"OD, average of 3 measurements","totarol 0.04%, 24 h",0.379
same,viable count by quantitative culture (cfu/ml),"totarol 0.08%, 0 h",6.1 × 10^5 cfu/ml
same,"OD, average of 3 measurements","totarol 0.08%, 0 h",0.740
same,viable count by quantitative culture (cfu/ml),"totarol 0.08%, 8 h",0 cfu/ml
same,"OD, average of 3 measurements","totarol 0.08%, 8 h",0.523
same,viable count by quantitative culture (cfu/ml),"totarol 0.08%, 16 h",0 cfu/ml
same,"OD, average of 3 measurements","totarol 0.08%, 16 h",0.455
same,viable count by quantitative culture (cfu/ml),"totarol 0.08%, 24 h",0 cfu/ml
same,"OD, average of 3 measurements","totarol 0.08%, 24 h",0.441
same,viable count by quantitative culture (cfu/ml),"totarol 0.16%, 0 h",1.4 × 10^5 cfu/ml
same,"OD, average of 3 measurements","totarol 0.16%, 0 h",0.822
same,viable count by quantitative culture (cfu/ml),"totarol 0.16%, 8 h",0 cfu/ml
same,"OD, average of 3 measurements","totarol 0.16%, 8 h",0.564
same,viable count by quantitative culture (cfu/ml),"totarol 0.16%, 16 h",0 cfu/ml
same,"OD, average of 3 measurements","totarol 0.16%, 16 h",0.451
same,viable count by quantitative culture (cfu/ml),"totarol 0.16%, 24 h",0 cfu/ml
same,"OD, average of 3 measurements","totarol 0.16%, 24 h",0.438
